Data from patent publication US10570179B2, “Substituted urea depsipeptide analogs as activators of the CLPP endopeptidase” (priority 2016, dated 2020).
In brackets after ≈: the same amount, converted by molar mass. Where two headings read alike, the source gives them in different places. Numbered stars: 1 amine (or outer) side, 2 acyl side, 3 side chain; on linkers, the order of the positions; unused ones are H or OH. Bridge positions count the residues as written; N and C are the ends. Square brackets hold non-standard residues; d marks the D form. Peptide text beside a SMILES is read from it. * marks the point of attachment. Piperazine(2S-CO,4-Me) = CN1CCN[C@H](C(=O)O)C1; Morpholine(3S-CO) = O=C(O)[C@@H]1COCCN1; Phe(3-Me) = Cc1cccc(C[C@H](N)C(=O)O)c1; Pro(4S-Me) = C[C@@H]1CN[C@H](C(=O)O)C1; X4 = O=C1CN([*:1])[C@H](C(=O)[*:2])CN1; Pro(4R-Me) = C[C@H]1CN[C@H](C(=O)O)C1; Hyp = O=C(O)[C@@H]1C[C@@H](O)CN1; NH(3-Cl-phenyl) = Clc1cccc(N*)c1; NH(4-Cl-phenyl) = Clc1ccc(N*)cc1; NH(4-Et-phenyl) = CCc1ccc(N*)cc1; aThr = C[C@H](O)[C@H](N)C(=O)O; Pip = O=C(O)[C@@H]1CCCCN1; CO = O=C([*:1])[*:2]

Experiments:
S. aureus ClpP (Sa-ClpP) = molecular target: T1, S. aureus ClpP (Sa-ClpP) (Staphylococcus aureus, UniProt Q2G036); test: Casein-BODIPY digestion assay (ClpP activation); type: biochemical
T1 construct: made in house; host or cells: E. coli BL21 (DE3)
T1 sequence (Q2G036 whole entry): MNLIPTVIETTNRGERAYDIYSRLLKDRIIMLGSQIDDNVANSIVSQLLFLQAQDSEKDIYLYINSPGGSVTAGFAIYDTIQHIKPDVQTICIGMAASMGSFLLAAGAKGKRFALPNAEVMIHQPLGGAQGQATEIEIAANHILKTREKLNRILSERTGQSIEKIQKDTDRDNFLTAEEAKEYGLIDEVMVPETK

S. aureus ΔClpP = test: Minimal inhibitory concentration, microbroth dilution; type: cell-based, Staphylococcus aureus; conditions: MIC; ClpP inactivated
Procedure, shortened: (§1)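 MICs were determined by CLSI broth microdilution, using two-fold compound dilutions from a final 200 μM and about 10^5 cfu/mL inoculum. Plates were incubated aerobically at 37 °C overnight. The MIC was read visually as the lowest concentration preventing growth.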

E. faecails = test: as above; type: cell-based; conditions: Enterococcus faecalis
Procedure, shortened: as §1

MRSA NRS70 = test: as above; type: cell-based; conditions: Staphylococcus aureus
Procedure, shortened: as §1

S. aureus ATCC 29213 = test: as above; type: cell-based; conditions: Staphylococcus aureus
Procedure, shortened: as §1

S. aureus USA 300 = test: as above; type: cell-based; conditions: Staphylococcus aureus
Procedure, shortened: as §1

[1] = read-out: Minimal Inhibitory Concentrations (μM) E. faecails, MIC
[2] = read-out: Minimal Inhibitory Concentrations (μM) MRSA NRS70, MIC
[3] = ATCC29213, read-out: Minimal Inhibitory Concentrations (μM) S. aureus ATCC 29213, MIC
[4] = USA300, read-out: Minimal Inhibitory Concentrations (μM) S. aureus USA 300, MIC
[5] = MIC, read-out: Minimal Inhibitory Concentrations (μM) E. faecails
[6] = MIC, read-out: Minimal Inhibitory Concentrations (μM) MRSA NRS70
[7] = ATCC29213, MIC, read-out: Minimal Inhibitory Concentrations (μM) S. aureus ATCC 29213
[8] = USA300, MIC, read-out: Minimal Inhibitory Concentrations (μM) S. aureus USA 300

Compound	EC50 (S. aureus ClpP (Sa-ClpP)) [nM]	Minimal Inhibitory Concentrations (μM) S. aureus ΔClpP (S. aureus ΔClpP) [µM]	MIC (E. faecails; [1]) [µM]	MIC (MRSA NRS70; [2]) [µM]	MIC (S. aureus ATCC 29213; [3]) [µM]	MIC (S. aureus USA 300; [4]) [µM]	MIC (E. faecails; [5]) [µM]	MIC (MRSA NRS70; [6]) [µM]	MIC (S. aureus ATCC 29213; [7]) [µM]	MIC (S. aureus USA 300; [8]) [µM]
Cc1cccc(C[C@H](NC(=O)Nc2ccc(Cl)cc2)C(=O)N[C@@H]2C(=O)N3C[C@H](O)C[C@H]3C(=O)N3CCCC[C@H]3C(=O)N[C@@H](C)C(=O)N3C[C@H](C)C[C@H]3C(=O)O[C@H]2C)c1 [Compound 61, (S)-2-(3-(4-CHLOROPHENYL)UREIDO)-N-((2R,6S,8AS,14AS,16R,20S,21S,23AS)-16-HYDROXY-2,6,21-TRIMETHYL-5,8,14,19,23-PENTAOXOOCTADECAHYDRO-1H,5H,14H,19H-PYRIDO[2,1-I]DIPYRROLO[2,1-C:2′,1′-L][1]OXA[4,7,10,13]TETRAAZACYCLOHEXADECIN-20-YL)-3-(M-TOLYL)PROPANAMIDE] ({NH(4-Cl-phenyl)-CO}-[Phe(3-Me)][aThr][Hyp][Pip]A[Pro(4R-Me)]; ester 2-C)	270 ± 100	>20	2.5 (≈ 2.06 µg/mL)	0.156 (≈ 0.128 µg/mL)	0.156 (≈ 0.128 µg/mL)	0.156 (≈ 0.128 µg/mL)	–	–	–	–
Cc1cccc(C[C@H](NC(=O)Nc2cccc(Cl)c2)C(=O)N[C@H]2COC(=O)[C@@H]3CCCN3C(=O)[C@H](C)NC(=O)[C@@H]3CCCCN3C(=O)[C@@H]3C[C@@H](O)CN3C2=O)c1 [Compound 57, (S)-2-(3-(3-CHLOROPHENYL)UREIDO)-N-((6S,8AS,14AS,16R,20S,23AS)-16-HYDROXY-6-METHYL-5,8,14,19,23-PENTAOXOOCTADECAHYDRO-1H,5H,14H,19H-PYRIDO[2,1-I]DIPYRROLO[2,1-C:2′,1′-L][1]OXA[4,7,10,13]TETRAAZACYCLOHEXADECIN-20-YL)-3-(M-TOLYL)PROPANAMIDE]	1880 ± 2400	>20	10 (≈ 7.94 µg/mL)	10 (≈ 7.94 µg/mL)	20 (≈ 15.9 µg/mL)	10 (≈ 7.94 µg/mL)	–	–	–	–
CCc1ccc(NC(=O)N[C@@H](Cc2cccc(C)c2)C(=O)N[C@@H]2C(=O)N3C[C@H](O)C[C@H]3C(=O)N3CCCC[C@H]3C(=O)N[C@@H](C)C(=O)N3C[C@@H](C)C[C@H]3C(=O)O[C@H]2C)cc1 [Compound 65, (S)-2-(3-(4-ETHYLPHENYL)UREIDO)-N-((2S,6S,8AS,14AS,16R,20S,21S,23AS)-16-HYDROXY-2,6,21-TRIMETHYL-5,8,14,19,23-PENTAOXOOCTADECAHYDRO-1H,5H,14H,19H-PYRIDO[2,1-I]DIPYRROLO[2,1-C:2′,1′-L][1]OXA[4,7,10,13]TETRAAZACYCLOHEXADECIN-20-YL)-3-(M-TOLYL)PROPANAMIDE] ({NH(4-Et-phenyl)-CO}-[Phe(3-Me)][aThr][Hyp][Pip]A[Pro(4S-Me)]; ester 2-C)	410 ± 100	>20	–	–	–	–	1.25 (≈ 1.02 µg/mL)	0.156 (≈ 0.127 µg/mL)	0.313 (≈ 0.255 µg/mL)	0.156 (≈ 0.127 µg/mL)
Cc1cccc(C[C@H](NC(=O)Nc2ccc(Cl)cc2)C(=O)N[C@H]2COC(=O)[C@@H]3CCCN3C(=O)[C@H](C)NC(=O)[C@@H]3CCCCN3C(=O)[C@@H]3C[C@@H](O)CN3C2=O)c1 [Compound 56, (S)-2-(3-(4-CHLOROPHENYL)UREIDO)-N-((6S,8AS,14AS,16R,20S,23AS)-16-HYDROXY-6-METHYL-5,8,14,19,23-PENTAOXOOCTADECAHYDRO-1H,5H,14H,19H-PYRIDO[2,1-I]DIPYRROLO[2,1-C:2′,1′-L][1]OXA[4,7,10,13]TETRAAZACYCLOHEXADECIN-20-YL)-3-(M-TOLYL)PROPANAMIDE]	1330 ± 2500	>20	2.5 (≈ 1.99 µg/mL)	10 (≈ 7.94 µg/mL)	5 (≈ 3.97 µg/mL)	2.5 (≈ 1.99 µg/mL)	–	–	–	–
Cc1cccc(C[C@H](NC(=O)Nc2cccc(Cl)c2)C(=O)N[C@@H]2C(=O)N3C[C@H](O)C[C@H]3C(=O)N3CCCC[C@H]3C(=O)N[C@@H](C)C(=O)N3C[C@@H](C)C[C@H]3C(=O)O[C@H]2C)c1 [Compound 67, (S)-2-(3-(3-CHLOROPHENYL)UREIDO)-N-((2S,6S,8AS,14AS,16R,20S,21S,23AS)-16-HYDROXY-2,6,21-TRIMETHYL-5,8,14,19,23-PENTAOXOOCTADECAHYDRO-1H,5H,14H,19H-PYRIDO[2,1-I]DIPYRROLO[2,1-C:2′,1′-L][1]OXA[4,7,10,13]TETRAAZACYCLOHEXADECIN-20-YL)-3-(M-TOLYL)PROPANAMIDE] ({NH(3-Cl-phenyl)-CO}-[Phe(3-Me)][aThr][Hyp][Pip]A[Pro(4S-Me)]; ester 2-C)	440 ± 300	>20	5 (≈ 4.11 µg/mL)	2.5 (≈ 2.06 µg/mL)	2.5 (≈ 2.06 µg/mL)	2.5 (≈ 2.06 µg/mL)	–	–	–	–
Cc1cccc(C[C@H](NC(=O)Nc2cccc(Cl)c2)C(=O)N[C@@H]2C(=O)N3C[C@H](O)C[C@H]3C(=O)N3CCN(C)C[C@H]3C(=O)N[C@@H](C)C(=O)N3C[C@H](C)C[C@H]3C(=O)O[C@H]2C)c1 [Compound 69, (S)-2-(3-(3-CHLOROPHENYL)UREIDO)-N-((6AS,8R,12S,13S,15AS,17R,21S,23AS)-8-HYDROXY-2,13,17,21-TETRAMETHYL-6,11,15,20,23-PENTAOXOOCTADECAHYDRO-2H,6H,11H,15H-PYRAZINO[2,1-I]DIPYRROLO[2,1-C:2′,1′-L][1]OXA[4,7,10,13]TETRAAZACYCLOHEXADECIN-12-YL)-3-(M-TOLYL)PROPANAMIDE] ({NH(3-Cl-phenyl)-CO}-[Phe(3-Me)][aThr][Hyp][Piperazine(2S-CO,4-Me)]A[Pro(4R-Me)]; ester 2-C)	390 ± 800	>20	5 (≈ 4.19 µg/mL)	5 (≈ 4.19 µg/mL)	5 (≈ 4.19 µg/mL)	2.5 (≈ 2.09 µg/mL)	–	–	–	–
CCc1ccc(NC(=O)N[C@@H](Cc2cccc(C)c2)C(=O)N[C@H]2COC(=O)[C@@H]3C[C@@H](C)CN3C(=O)[C@H](C)NC(=O)[C@@H]3CCCCN3C(=O)[C@@H]3CCCN3C2=O)cc1 [Compound 70, (S)—N-((2R,6S,8AS,14AS,20S,23AS)-2,6-DIMETHYL-5,8,14,19,23-PENTAOXOOCTADECAHYDRO-1H,5H,14H,19H-PYRIDO[2,1-I]DIPYRROLO[2,1-C:2′,1′-L][1]OXA[4,7,10,13]TETRAAZACYCLOHEXADECIN-20-YL)-2-(3-(4-ETHYLPHENYL)UREIDO)-3-(M-TOLYL)PROPANAMIDE]	290 ± 100	>20	–	–	–	–	0.156 (≈ 0.123 µg/mL)	0.313 (≈ 0.246 µg/mL)	0.625 (≈ 0.491 µg/mL)	0.313 (≈ 0.246 µg/mL)
Cc1cccc(C[C@H](NC(=O)Nc2cccc(Cl)c2)C(=O)N[C@H]2COC(=O)[C@@H]3C[C@H](C)CN3C(=O)[C@H](C)NC(=O)[C@@H]3CCCCN3C(=O)[C@@H]3CCCN3C2=O)c1 [Compound 54, (S)-2-(3-(3-CHLOROPHENYL)UREIDO)-N-((2S,6S,8AS,14AS,20S,23AS)-2,6-DIMETHYL-5,8,14,19,23-PENTAOXOOCTADECAHYDRO-1H,5H,14H,19H-PYRIDO[2,1-I]DIPYRROLO[2,1-C:2′,1′-L][1]OXA[4,7,10,13]TETRAAZACYCLOHEXADECIN-20-YL)-3-(M-TOLYL)PROPANAMIDE]	1540 ± 1400	>20	10 (≈ 7.92 µg/mL)	5 (≈ 3.96 µg/mL)	> 20	> 20	–	–	–	–
Cc1cccc(C[C@H](NC(=O)Nc2ccc(Cl)cc2)C(=O)N[C@@H]2C(=O)N3CCC[C@H]3C(=O)N3CC(=O)NC[C@H]3C(=O)N[C@@H](C)C(=O)N3C[C@H](C)C[C@H]3C(=O)O[C@H]2C)c1 [Compound 75, (S)-2-(3-(4-CHLOROPHENYL)UREIDO)-3-(M-TOLYL)-N-((6AS,12S,13S,15AS,17R,21S,23AS)-13,17,21-TRIMETHYL-3,6,11,15,20,23-HEXAOXOOCTADECAHYDRO-2H,6H,11H,15H-PYRAZINO[2,1-I]DIPYRROLO[2,1-C:2′,1′-L][1]OXA[4,7,10,13]TETRAAZACYCLOHEXADECIN-12-YL)PROPANAMIDE] ({NH(4-Cl-phenyl)-CO}-[Phe(3-Me)][aThr]P[X4]A[Pro(4R-Me)]; ester 2-C)	1210 ± 1000	>20	> 20	20 (≈ 16.4 µg/mL)	20 (≈ 16.4 µg/mL)	10 (≈ 8.21 µg/mL)	–	–	–	–
Cc1cccc(C[C@H](NC(=O)Nc2ccc(Cl)cc2)C(=O)N[C@@H]2C(=O)N3C[C@H](O)C[C@H]3C(=O)N3CCOC[C@H]3C(=O)N[C@@H](C)C(=O)N3C[C@H](C)C[C@H]3C(=O)O[C@H]2C)c1 [Compound 73, (S)-2-(3-(4-CHLOROPHENYL)UREIDO)-N-((6AS,8R,12S,13S,15AS,17R,21S,23AS)-8-HYDROXY-13,17,21-TRIMETHYL-6,11,15,20,23-PENTAOXOOCTADECAHYDRO-6H,11H,15H-[1,4]OXAZINO[3,4-I]DIPYRROLO[2,1-C:2′,1′-L][1]OXA[4,7,10,13]TETRAAZACYCLOHEXADECIN-12-YL)-3-(M-TOLYL)PROPANAMIDE] ({NH(4-Cl-phenyl)-CO}-[Phe(3-Me)][aThr][Hyp][Morpholine(3S-CO)]A[Pro(4R-Me)]; ester 2-C)	250 ± 100	>20	0.625 (≈ 0.515 µg/mL)	2.5 (≈ 2.06 µg/mL)	2.5 (≈ 2.06 µg/mL)	0.625 (≈ 0.515 µg/mL)	–	–	–	–
